The results in this text go back to US5705649A, “Protein staining compositions and methods” (Promega Corporation, priority 1995, dated 1998).

Data set [1] in a line: Spectral analyses of Coomassie Blue R and Promega Green 1, 2, 3. The class given is physicochemical. The settings on record: diluted 1:500 in 1:1 methanol:water. The procedure: The three solutions of Promega Green 1, 2, and 3, from examples 1, 2 and 3 respectively, were diluted approximately 500 fold into a 1:1 solution of methanol:water. The spectra of the resulting solutions and of a 12 μg/ml solution of Coomassie Blue R (in 1:1 methanol:water) were recorded from 700 to 340 nm versus 1:1 methanol:water. […] All of the derivatives gave essentially identical spectra; however, the maximal absorbance of the diluted Promega Green i was about twice that seen for the other derivatives. The derivatives had two peak absorptions in the region of the spectrum scanned, a major peak at around 630 nm and a second peak at around 440 nm. The following absorbances were recorded at the peaks near 630 nm for the three Promega Green dye solutions (diluted 1:500 in 1:1 methanol:water): […]

Data set [2] concerns Promega Mid-Range Molecular Weight Markers. The data set can be described thus: Enhancement of staining of proteins in SDS-PAGE gels in 5% acetic acid. The settings on record: 5% acetic acid; for lowest protein amount per band visible after enhancement: 1-2 minutes. The procedure:
The gels described above were placed in 5% acetic acid following the termination of the electrophoretic separation. Within one to two minutes the gel developed a light green background but the protein bands dramatically darkened to a green color. […] Again, the color of the background darkened to a greater degree when greater concentrations of dye were used.
The gels above (from Example 7) were placed in 5% acetic acid following termination of the electrophoretic separation. Within 1-2 minutes, all the gels turned light green and the color of the stained bands intensified such that all proteins were visible--even in the lane containing 0.25 μg protein/band.
The gels above (Example 9) were placed in 5% acetic acid following termination of the electrophoretic separation. Within 1-2 minutes, all the gels turned light green and the color of the stained bands intensified such that all proteins were visible--even in the lanes containing 0.25 μg protein/band.

Data set [3] has the same test system. The data set can be described thus: Detection of proteins during SDS-PAGE electrophoresis (dye in cathode buffer). As to conditions: 10% SDS-PAGE, dye in cathode buffer, white plastic card behind gel. From the text: Solutions for the formation and electrophoresis of proteins were made according to the instructions given in Experiments in Gene Fusions, Silhavy, Berman, Enquist, Cold Spring Harbor Laboratory Press, Cold Spring Harbor, N.Y. with the following changes:
a) The SDS concentration in the upper and lower gel buffer components were reduced to result in a 0.05% final SDS concentration in the gel. Thus, the composition of 4× upper gel buffer was 0.5M Tris-HCl, pH 6.8, 0.2 % (w/v) sodium dodecylsulfate (SDS) and the composition of 4× lower gel buffer was 1.5M Tris-HCl, pHS.8, 0.2 % (w/v) SDS.
b) The SDS concentration in the electrophoretic (electrode) buffer was reduced to 0.04% final concentration. Thus, 4× electrode (anode or cathode) buffer was made by dissolving 60 g Tris base, 288 g glycine, and 8 g SDS dissolved in water and then diluting with water to 5 liters. Another name sometimes used for "electrode" buffer is "running" buffer.
c) The SDS concentration in the 2× sample buffer was reduced to 1% final SDS concentration. Thus, 2× sample buffer was made by mixing 0.5 ml of betamercaptoethanol, 0.25 ml of 0.1% (w/v) bromophenol blue, 1 ml of 10 % (w/v) SDS, 3 ml of water, and 5.3 ml of 2× glycerol buffer. 2× glycerol buffer is made by mixing 12.5 ml of 4× upper gel buffer and 20 ml of glycerol and diluting the resulting solution to 60 ml with water. Another name sometimes used for "sample" buffer is "loading" buffer.
d) Electrophoresis was performed using a BIO-RAD miniprotein II electrophoresis apparatus and gels were poured such that i cm of space was present between the bottom of the loading wells and the separating gel.
In other electrophoresis experiments reported in this application, the buffers used were as described above in this example. In some cases, as in this example, where preparation of a solution of dye in 150 ml of cathode (or electrode) buffer is specified, an amount of stock solution of a dye was first added to 150 ml of cathode buffer and then 125 ml of the resulting solution was used to fill the cathode buffer chamber (which holds 125 ml) in the electrophoresis apparatus. In other cases, where addition of stock solution of dye to the cathode buffer is specified without reference to the volume of cathode buffer or with reference to such volume being "125 ml," the stock solution was added directly to 125 ml of cathode buffer already in the cathode buffer chamber.
The samples used were prepared with Promega Mid-Range Molecular Weight Markers solution (Promega Corp., Madison, Wis., USA, Catalog No. V5231) (referred to hereinafter as "Promega Mid-Range [Molecular Weight] Markers or Standards") diluted into Sample Buffer. […]

Data set [4] has as its system Promega Mid Range Molecular Weight Standards. The data set can be described thus: Detection of denatured protein with dodecylamino and octylamino derivatives of fluorescein isothiocyanate. The procedure: A fifteen well, 12% gel was made as described in example 5 and was loaded with diluted Promega Mid Range Molecular Weight Standards to produce lanes containing samples having 200, 100, 80, 60, 40, 20 and 10 ng of protein per band. The gel was run as described in example 5 except that Promega Green 1 was not added to the cathode buffer. After electrophoresis, the gel was cut between lanes to produce gel segments containing fractionated protein samples at each of the concentrations listed above and these were placed in 30% methanol for 25-30 min at room temperature. The stock stain solutions of Example 33 were then diluted into distilled water at a concentration of 0.5% (v/v), and 50 ml of these solutions were used to stain the gels. After 1 hr incubation, the gels were visualized and photographed using a transilluminator. […] The gels were then placed in 5% methanol and allowed to destain overnight.
Gels were made and loaded as described in Example 34. The gels were incubated in 30% methanol for 15 min to fix the protein and then were incubated in 50 ml of a solution of the stains of Example 38 made by dilution of the stock stain solutions described in Example 38 to a concentration of 0.5% (v/v) in distilled water. After incubation in the staining solution for 1 hr, the gels were placed in 5% methanol and were visualized and photographed after 30 min by placement of the gel segment on a transilluminator. Photography of the segments was performed as described in Example 27. At this point, protein bands were visualized in the gel stained with the dodecylamino derivative at a concentration as low as 80 ng of protein per band.
The gel segments were then returned to the destaining solutions and allowed to incubate overnight. The segment of the gel stained with the octylamino derivative was transferred to a solution of 30% methanol following the overnight incubation and was revisualized and rephotographed after 1 hr of incubation in this methanol solution. At this point, protein was detected at fluorescently labeled bands to a concentration as low as 40 ng of protein per band.

[5] abbreviates: 0.5% (v/v) stain 1 hr, 5% methanol 30 min.

SMILES strings stand for the structures.

With `CCOc1ccc(N(C(C)=O)c2ccc(C(=C3C=CC(=[N+](CC)Cc4cccc(S(=O)(=O)[O-])c4)C=C3)c3ccc(N(CC)Cc4cccc(S(=O)(=O)O)c4)cc3)cc2)cc1` [Promega Green 2], in data set [1], the “Absorbance at the peak near 630 nm” value was 1.37. In addition, in data set [2], the “lowest protein amount per band visible after enhancement” value worked out at 0.25 µg and the “staining after overnight incubation” value is reported as “slightly faded”. In data set [3], the “lowest protein amount per band visible while the gel was running” value amounted to 1.0 µg.
As for `CCCCCCCCCCCC(=O)N(c1ccc(OCC)cc1)c1ccc(C(=C2C=CC(=[N+](CC)Cc3cccc(S(=O)(=O)[O-])c3)C=C2)c2ccc(N(CC)Cc3cccc(S(=O)(=O)O)c3)cc2)cc1` [Promega Green 3], the “Absorbance at the peak near 630 nm” value in data set [1] turned out to be 0.83. In addition, in data set [2], the “lowest protein amount per band visible after enhancement” value amounted to 0.25 µg and the “staining after overnight incubation” value is “darker background color”. Moreover, the “lowest protein amount per band visible while the gel was running” value in data set [3] was 1.0 µg.
`CCCCCCCCCCCCNC(=S)Nc1ccc(-c2c3ccc(=O)cc-3oc3cc(O)ccc23)c(C(=O)O)c1` [dodecylamino derivative]: in data set [4] (setting [5]), the “lowest protein per band visualized” value is listed as 80 ng.
On to `CCCCCCCCNC(=S)Nc1ccc(-c2c3ccc(=O)cc-3oc3cc(O)ccc23)c(C(=O)O)c1` [octylamino derivative], for which the “background / visualization of bands” value in data set [4] (setting [5]) is given as “high background fluorescence which prevented visualization of the protein bands”. Moreover, the “lowest protein per band detected” value in data set [4] (after overnight destaining, then 30% methanol 1 hr) came to 40 ng.
